In patent publication US7776924B2, “Nitroaniline-based alkylating agents and their use as prodrugs” (Auckland Uniservices Limited, priority 2002, dated 2010):
Marks after values point to notes of the source that are not given here.

What was measured:
Type in all cases: cell-based
SKOV3 = assay: Cytotoxicity in wild-type (NR−) human ovarian cell line SKOV3
SC3.2 = assay: Cytotoxicity in NTR-transfected (NR+) human ovarian cell line SC3.2; conditions: for IC50: SC3.2 NTR-transfected, 18 h exposure; for Ratio = IC50(NR−)/IC50(NR+) Human Ovarian: SKOV3 / SC3.2, 18 h exposure
WIDR = assay: Cytotoxicity in wild-type (NR−) human colon cell line WIDR
WC14.10 = assay: Cytotoxicity in NTR-transfected (NR+) human colon cell line WC14.10; conditions: for IC50: WC14.10 NTR-transfected
[1] = test system: A549 human lung carcinoma cells; assay: Cytotoxicity in oxic and anoxic wild-type A549 human lung carcinoma cells; conditions: 4 h exposure; for IC50: anoxic, read-out: IC50 WT anoxic
[2] = test system: A549 transfected with human cytochrome P450 reductase (P450R); assay: Cytotoxicity in oxic and anoxic A549 cells transfected with human cytochrome P450 reductase; conditions: 4 h exposure; for IC50: anoxic
[3] = Homo sapiens, SK-OV-3, 18 h exposure

Row | SMILES | Ratio = IC50(NR−)/IC50(NR+) Human Ovarian (SC3.2) | Ratio = IC50(NR−)/IC50(NR+) Human colon (WC14.10; WIDR / WC14.10, 18 h exposure) | IC50 (SKOV3; 18 h exposure) | IC50 (SC3.2) | IC50 (WIDR; 18 h exposure) | IC50 (WC14.10; 18 h exposure) | other results
1 | NC(=O)c1cc(N(CCCl)CCBr)c([N+](=O)[O-])cc1[N+](=O)[O-] [IIa2, 5-[(2-Bromoethyl)(2-chloroethyl)amino]-2,4-dinitrobenzamide] | 280 | 235 |  |  |  |  | IC50 (SKOV3; [3]): 226 µM; IC50 (SC3.2; Homo sapiens): 0.84 µM; IC50 (WIDR; Homo sapiens, 18 h exposure): 150 µM; IC50 (WC14.10; Homo sapiens, 18 h exposure): 0.69 µM
2 | CS(=O)(=O)OCCN(CCBr)c1cc(C(N)=O)c([N+](=O)[O-])cc1[N+](=O)[O-] [IIa3, 2-[5-(Aminocarbonyl)(2-bromoethyl)-2,4-dinitroanilino]ethyl methanesulfonate] | 715 | 387 | 135 µM | 0.19 µM | 80 µM | 0.22 µM | 
3 | CS(=O)(=O)OCCN(CCI)c1cc(C(N)=O)c([N+](=O)[O-])cc1[N+](=O)[O-] [IIa4, 2-[5-(Aminocarbonyl)(2-iodoethyl)-2,4-dinitroanilino]ethyl methanesulfonate] | 311 | 172 | 97 µM | 0.33 µM | 70 µM | 0.41 µM | 
4 | CS(=O)(=O)OCCN(CCBr)c1cc(C(=O)NCCCO)c([N+](=O)[O-])cc1[N+](=O)[O-] [IIa6, 2-((2-Bromoethyl)5-{[(3-hydroxypropyl)amino]carbonyl}-2,4-dinitroanilino)ethyl methanesulfonate] |  | 91 |  |  | 453 µM | 5 µM | WT Ratio = IC50(aerobic)/IC50(anoxic) [1]: 2.4; IC50 [1]: 348 µM; P450R ratio = IC50(aerobic)/IC50(anoxic) [2]: 18; IC50 [2]: 31 µM
5 | CS(=O)(=O)OCCN(CCBr)c1cc(C(=O)NCC(O)CO)c([N+](=O)[O-])cc1[N+](=O)[O-] (stereo not shown) [IIa7, 2-((2-Bromoethyl)-5-{[(2,3-dihydroxypropyl)amino]carbonyl}-2,4-dinitroanilino)ethyl methanesulfonate] |  | 268 | 1110 µM | 1.74 µM | 804 µM | 3 µM | 
6 | CS(=O)(=O)OCCN(CCCl)c1c(C(N)=O)cc([N+](=O)[O-])cc1[N+](=O)[O-] [IIb1, 2-[2-(Aminocarbonyl)(2-chloroethyl)-4,6-dinitroanilino]ethyl methanesulfonate] | 1890 | 303 | 80 µM | 0.04 µM | 20 µM | 0.07 µM | 
7 | CS(=O)(=O)OCCN(CCBr)c1c(C(N)=O)cc([N+](=O)[O-])cc1[N+](=O)[O-] [IIb2, 2-[2-(Aminocarbonyl)(2-bromoethyl)-4,6-dinitroanilino]ethyl methanesulfonate] | 762 | 227 | 6 µM | 0.007 µM | 4.3 µM | 0.02 µM | 
8 | CS(=O)(=O)OCCN(CCI)c1c(C(=O)NCCO)cc([N+](=O)[O-])cc1[N+](=O)[O-] [IIb4, 2-((2-Iodoethyl)-2-{[(2-hydroxyethyl)amino]carbonyl}-4,6-dinitroanilino)ethyl methanesulfonate] |  |  |  |  |  |  | WT Ratio = IC50(aerobic)/IC50(anoxic) [1]: 7; IC50 [1]: 4.5 µM; IC50 (WIDR; 4 h exposure): 9 µM; IC50 (WC14.10; 4 h exposure): 0.29 µM; Ratio = IC50(NR−)/IC50(NR+) Human colon (WC14.10; WIDR / WC14.10, 4 h exposure): 31^f; P450R ratio = IC50(aerobic)/IC50(anoxic) [2]: 95; IC50 [2]: 0.45 µM
9 | CS(=O)(=O)OCCN(CCBr)c1c(C(=O)NCC(O)CO)cc([N+](=O)[O-])cc1[N+](=O)[O-] (stereo not shown) [IIb6, 2-((2-Bromoethyl)-2-{[(2,3-dihydroxypropyl)amino]carbonyl}-4,6-dinitroanilino)ethyl methanesulfonate] | 140 | 52 | 26 µM | 0.19 µM | 11 µM | 0.21 µM | 
10 | CS(=O)(=O)OCCN(CCBr)c1c(C(=O)NCCCN2CCOCC2)cc([N+](=O)[O-])cc1[N+](=O)[O-] [IIb7, 2-[(2-Bromoethyl)-2-({[3-(4-morpholinyl)propyl]amino}carbonyl)-4,6-dinitroanilino]ethyl methanesulfonate] | 102 | 22 | 3.1 µM | 0.03 µM | 0.89 µM | 0.05 µM | 
11 | COC(=O)CCNC(=O)c1cc([N+](=O)[O-])cc([N+](=O)[O-])c1N(CCBr)CCOS(C)(=O)=O [IIb9, Methyl 3-{[2-((2-bromoethyl){2-[(methylsulfonyl)oxy]ethyl}amino)-3,5-dinitrobenzoyl]amino}propanoate] | 25 | 6.3 |  |  |  |  | IC50 (SKOV3; [3]): 3.7 µM; IC50 (SC3.2; Homo sapiens): 0.15 µM; IC50 (WIDR; Homo sapiens, 18 h exposure): 1.44 µM; IC50 (WC14.10; Homo sapiens, 18 h exposure): 0.24 µM
12 | CS(=O)(=O)OCCN(CCCl)c1ccc([N+](=O)[O-])c(C(N)=O)c1[N+](=O)[O-] [IIc1, 2-[3-(Aminocarbonyl)(2-chloroethyl)-2,4-dinitroanilino]ethyl methanesulfonate] | 390 | 120 | 196 µM | 0.55 µM | 121 µM | 1 µM | 
13 | CS(=O)(=O)OCCN(CCBr)c1c([N+](=O)[O-])ccc(C(N)=O)c1[N+](=O)[O-] [IIc2, 2-[3-(Aminocarbonyl)(2-bromoethyl)-2,6-dinitroanilino]ethyl methanesulfonate] | 724 | 271 | 150 µM | 0.21 µM | 85 µM | 0.31 µM | 
14 | CS(=O)(=O)OCCN(CCBr)c1c([N+](=O)[O-])ccc(C(=O)NCCCCO)c1[N+](=O)[O-] [IIc6, 2-((2-Bromoethyl)-3-{[(4-hydroxybutyl)amino]carbonyl}-2,6-dinitroanilino)ethyl methanesulfonate] |  |  |  |  |  |  | IC50 (WIDR; 4 h exposure): 314 µM; IC50 (WC14.10; 4 h exposure): 20 µM; Ratio = IC50(NR−)/IC50(NR+) Human colon (WC14.10; WIDR / WC14.10, 4 h exposure): 16^f
15 | CS(=O)(=O)OCCN(CCCl)c1ccc([N+](=O)[O-])c(C(=O)NCC(O)CO)c1[N+](=O)[O-] (stereo not shown) [IIc7, 2-((2-Chloroethyl)-3-{[(2,3-dihydroxypropyl)amino]carbonyl}-2,4-dinitroanilino)ethyl methanesulfonate] | 267 | 262 | 1680 µM | 6.6 µM | 856 µM | 4.3 µM | 
16 | CS(=O)(=O)OCCN(CCBr)c1ccc([N+](=O)[O-])c(C(=O)NCC(O)CO)c1[N+](=O)[O-] (stereo not shown) [IIc8, 2-((2-Bromoethyl)-3-{[(2,3-dihydroxypropyl)amino]carbonyl}-2,4-dinitroanilino)ethyl methanesulfonate] | 509 | 141 | 890 µM | 1.8 µM | 214 µM | 1.5 µM | 
17 | CS(=O)(=O)OCCN(CCCl)c1ccc([N+](=O)[O-])c(C(=O)NCCCN2CCOCC2)c1[N+](=O)[O-] [IIc9, 2-[(2-Chloroethyl)-3-({[3-(4-morpholinyl)propyl]amino}carbonyl)-2,4-dinitroanilino]ethyl methanesulfonate] | 14 | 8.3 | 433 µM | 32 µM | 262 µM | 31 µM | 
18 | CS(=O)(=O)OCCN(CCBr)c1ccc([N+](=O)[O-])c(C(=O)NCCCN2CCOCC2)c1[N+](=O)[O-] [IIc10, 2-[(2-Bromoethyl)-3-({[3-(4-morpholinyl)propyl]amino}carbonyl)-2,4-dinitroanilino]ethyl methanesulfonate] | 14 | 8.2 | 156 µM | 11 µM | 94 µM | 11 µM | 
